Several values for one entry are separate records, joined by “and”; a condition that tells them apart may be missing. Equal values may be shown once.
Columns and labels:
[1] = xn = mol fraction of the nth substance listed; conditions: 101 kPa, Liquid, x2 = 0; for viscosity: Falling or rolling sphere viscometry; for mass density: Vibrating tube method
[2] = 101 kPa, Liquid; for viscosity: Falling or rolling sphere viscometry; for mass density: Vibrating tube method

CCCO [propan-1-ol] + CCCC(=O)OCC
[1]
Conditions	mass density [kg/m3]	viscosity [mPa·s]
288.15 K	807.75	2.514
293.15 K	803.77	2.208
298.15 K	799.76	1.95
303.15 K	795.72	1.727
308.15 K	791.64	1.542
313.15 K	787.52	1.378
318.15 K	783.36	1.236
323.15 K	779.14	1.124

CC(C)CO [2-methyl-1-propanol]
[2]
Conditions	mass density [kg/m3]	viscosity [mPa·s]
288.15 K	805.88	4.829
293.15 K	802.03	4.052
298.15 K	798.16	3.431
303.15 K	794.25	2.923
308.15 K	790.31	2.505
313.15 K	786.31	2.161
318.15 K	782.26	1.876
323.15 K	778.14	1.652

CC(C)CCO [3-methylbutan-1-ol] + CCCC(=O)OCC
[1]
Conditions	mass density [kg/m3]	viscosity [mPa·s]
288.15 K	812.29	5.057
293.15 K	808.58	4.288
298.15 K	804.84	3.671
303.15 K	801.09	3.155
308.15 K	797.31	2.73
313.15 K	793.51	2.375
318.15 K	789.67	2.076
323.15 K	785.79	1.841

CCCCCCO [hexan-1-ol] + CCCC(=O)OCC
[1]
Conditions	mass density [kg/m3]	viscosity [mPa·s]
288.15 K	822.26	6.308
293.15 K	818.7	5.332
298.15 K	815.12	4.538
303.15 K	811.52	3.896
308.15 K	807.89	3.361
313.15 K	804.25	2.917
318.15 K	800.56	2.546
323.15 K	796.85	2.241

CC(C)CCO [3-methylbutan-1-ol]
[2]
Conditions	mass density [kg/m3]	viscosity [mPa·s]
288.15 K	812.29	5.057
293.15 K	808.58	4.288
298.15 K	804.84	3.671
303.15 K	801.09	3.155
308.15 K	797.31	2.73
313.15 K	793.51	2.375
318.15 K	789.67	2.076
323.15 K	785.79	1.841

CCCCCCO [hexan-1-ol]
[2]
Conditions	mass density [kg/m3]	viscosity [mPa·s]
288.15 K	822.26	6.308
293.15 K	818.7	5.332
298.15 K	815.12	4.538
303.15 K	811.52	3.896
308.15 K	807.89	3.361
313.15 K	804.25	2.917
318.15 K	800.56	2.546
323.15 K	796.85	2.241

CCCC(=O)OCC [ethyl butanoate]
[2]
Conditions	mass density [kg/m3]	viscosity
288.15 K	884.16	0.7224 mPa·s
293.15 K	878.9	0.6808 mPa·s
298.15 K	873.62	0.643 mPa·s
303.15 K	868.33	0.6072 mPa·s
308.15 K	863.02	0.5736 mPa·s
313.15 K	857.7	0.5424 mPa·s and 0.5425 mPa·s
318.15 K	852.36	0.5132 mPa·s
323.15 K	847	0.487 mPa·s

CC(C)CO [2-methyl-1-propanol] + CCCC(=O)OCC
[1]
Conditions	mass density [kg/m3]	viscosity [mPa·s]
288.15 K	805.88	4.829
293.15 K	802.03	4.052
298.15 K	798.16	3.431
303.15 K	794.25	2.923
308.15 K	790.31	2.505
313.15 K	786.31	2.161
318.15 K	782.26	1.876
323.15 K	778.14	1.652

CCCO [propan-1-ol]
[2]
Conditions	mass density [kg/m3]	viscosity [mPa·s]
288.15 K	807.75	2.514
293.15 K	803.77	2.208
298.15 K	799.76	1.95
303.15 K	795.72	1.727
308.15 K	791.64	1.542
313.15 K	787.52	1.378
318.15 K	783.36	1.236
323.15 K	779.14	1.124

CCCCO [butan-1-ol] + CCCC(=O)OCC
[1]
Conditions	mass density [kg/m3]	viscosity [mPa·s]
288.15 K	813.46	3.365
293.15 K	809.66	2.913
298.15 K	805.84	2.563
303.15 K	801.99	2.257
308.15 K	798.12	1.994
313.15 K	794.22	1.779
318.15 K	790.28	1.576
323.15 K	786.29	1.422

CCCCO [butan-1-ol]
[2]
Conditions	mass density [kg/m3]	viscosity [mPa·s]
288.15 K	813.46	3.365
293.15 K	809.66	2.913
298.15 K	805.84	2.563
303.15 K	801.99	2.257
308.15 K	798.12	1.994
313.15 K	794.22	1.779
318.15 K	790.28	1.576
323.15 K	786.29	1.422
